In PMC12562155, “Interference-Free Measurement of Urinary Angiotensin-Converting Enzyme (ACE) Activity: Diagnostic and Therapeutic Monitoring Implications” (Biomedicines, 2025):
pIC50: −log10 of the molar value. Where a name gives a salt, the structure may show the parent alone. Residues, ends and D or L forms follow the SMILES beside them. *: point of attachment. Cbz = O=C(OCc1ccccc1)*

Experiments:
Type in all cases: biochemical
[1] = biological target: T1, urinary angiotensin-converting enzyme (uACE) (Homo sapiens, UniProt P12821); test: Fluorescent kinetic uACE activity assay with ACE-specific inhibitors and inhibitors of other proteases (sensitivity testing); conditions: for effect on measured uACE activity: peptidase inhibitors, inhibitor-free 10 kDa retentate
T1 construct: from tissue; host or cells: human urine (native, or retentate of 10 kDa / 30 kDa Vivaspin 20 membrane filters)
T1 sequence (P12821 30-1232 limits assumed): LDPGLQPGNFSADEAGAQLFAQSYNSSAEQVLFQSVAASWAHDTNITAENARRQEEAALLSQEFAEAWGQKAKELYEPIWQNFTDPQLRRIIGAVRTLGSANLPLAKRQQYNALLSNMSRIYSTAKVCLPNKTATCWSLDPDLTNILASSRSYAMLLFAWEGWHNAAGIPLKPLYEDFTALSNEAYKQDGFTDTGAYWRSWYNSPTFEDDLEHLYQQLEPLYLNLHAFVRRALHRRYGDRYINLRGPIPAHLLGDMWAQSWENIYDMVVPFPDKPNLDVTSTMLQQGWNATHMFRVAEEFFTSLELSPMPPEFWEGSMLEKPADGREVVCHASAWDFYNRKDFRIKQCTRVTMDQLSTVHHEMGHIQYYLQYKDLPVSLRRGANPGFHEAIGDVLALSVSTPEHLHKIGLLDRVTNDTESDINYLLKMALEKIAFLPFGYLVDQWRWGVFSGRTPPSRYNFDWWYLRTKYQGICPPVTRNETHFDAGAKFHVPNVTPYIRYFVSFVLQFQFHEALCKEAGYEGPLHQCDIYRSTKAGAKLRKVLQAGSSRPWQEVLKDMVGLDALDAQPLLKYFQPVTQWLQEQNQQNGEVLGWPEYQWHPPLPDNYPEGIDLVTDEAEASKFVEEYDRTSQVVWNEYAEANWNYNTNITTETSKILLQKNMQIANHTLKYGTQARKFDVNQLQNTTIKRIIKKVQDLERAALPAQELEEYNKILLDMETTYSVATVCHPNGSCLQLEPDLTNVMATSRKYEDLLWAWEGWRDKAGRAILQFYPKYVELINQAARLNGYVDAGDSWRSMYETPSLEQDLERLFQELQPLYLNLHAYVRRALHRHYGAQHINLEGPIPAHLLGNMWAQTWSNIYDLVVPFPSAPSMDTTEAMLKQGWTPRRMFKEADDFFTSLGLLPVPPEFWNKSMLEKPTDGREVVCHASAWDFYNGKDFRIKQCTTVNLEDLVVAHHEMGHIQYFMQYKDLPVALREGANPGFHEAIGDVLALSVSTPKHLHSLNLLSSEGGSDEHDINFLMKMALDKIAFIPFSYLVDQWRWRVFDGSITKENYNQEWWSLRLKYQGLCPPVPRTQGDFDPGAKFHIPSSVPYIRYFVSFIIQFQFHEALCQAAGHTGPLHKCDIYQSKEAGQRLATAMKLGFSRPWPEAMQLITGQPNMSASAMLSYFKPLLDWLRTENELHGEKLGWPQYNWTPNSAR

[2] = biological target: T1, urinary angiotensin-converting enzyme (uACE); test: Fluorescent kinetic ACE activity assay on inhibitor-free ACE purified from urine (30 kDa retentate) with potential endogenous inhibitors; conditions: for uACE inhibition within reference (physiological) urinary concentration range: ACE purified from urine, physiological concentration range of the molecule in urine; for pIC50: ACE purified from urine (30 kDa retentate), two-phase decay fit
Method: (§1) ACE activity was measured using the optimized fluorescent kinetic method previously reported by our group with different sample dilutions for each experiment.
In the final dilutional protocol, the reaction mixture contained 100 mM tris(hydroxymethyl)aminomethane hydrochloride (TRIS) buffer (pH 7.0), 15 μM Abz-FRK(Dnp)P-OH substrate (synthesized by Peptide 2.0, Chantilly, VA, USA), 50 mM NaCl, 10 μM ZnCl2, and urine at 64-fold and 128-fold final dilutions. […] Continuous recording of fluorescent intensity change was performed for 90 min with 1-min measurement intervals at 37 °C. Data points between 20 min and 80 min were used for analysis. When activity measured at 64-fold dilution exceeded that measured at 128-fold, the 64-fold results were used to avoid over-dilution bias of dilute urine samples.
Inhibitor-free ACE pre-purified on a 30 kDa Vivaspin 20 membrane filter column was used to identify inhibitors. Potential inhibitors were dissolved according to factory instructions (Urea: Cat. No.: U6504-1KG; Sigma-Aldrich, St. Louis, MO, USA; Uric acid: Cat. No.: U2625-25G; Sigma-Aldrich, St. Louis, MO, USA; Urobilinogen: Cat. No: 651-10; Lee Biosolutions, Maryland Heights, MO, USA). In the corresponding experiments, uACE with activities ranging from 0.15 to 0.53 U/L was applied. The obtained curves were fitted using the ‘two-phase decay’ equation in GraphPad Prism software, version 9 (GraphPad Software Inc., San Diego, CA, USA).

serum ACE = biological target: T2, serum ACE (Homo sapiens, UniProt P12821); test: Serum ACE activity in the presence of phosphoramidon; conditions: compared with effect on uACE
T2 construct: from tissue; host or cells: serum
T2 sequence (P12821 30-1232 limits assumed): as above
Method: as §1

Row | SMILES | effect on measured uACE activity [1] | uACE inhibition within reference (physiological) urinary concentration range [2] | other results
1 | CC(C)C[C@@H](N)[C@H](O)C(=O)N[C@H](C(=O)N[C@H](C(=O)N[C@@H](CC(=O)O)C(=O)O)C(C)C)C(C)C.Cl [Amastatin hydrochloride] | had no effect | – | –
2 | CC(C)C[C@H](N[C@@H](Cc1cncn1Cc1cc(Cl)cc(Cl)c1)C(=O)O)C(=O)O [MLN-4760] | had no effect | – | –
3 | NC(N)=O [Urea] | – | 10–25% | –
4 | O=c1[nH]c(=O)c2[nH]c(=O)[nH]c2[nH]1 [Uric acid] | – | 30–50% | pIC50 [2]: 2.44
5 | CCC1=C(C)C(Cc2[nH]c(Cc3[nH]c(CC4NC(=O)C(C)=C4CC)c(C)c3CCC(=O)O)c(CCC(=O)O)c2C)NC1=O (stereo not drawn) [Urobilinogen] | – | 3–20% | pIC50 [2]: 3.53; pIC50 ([2]; listed as urobilinogen): 3.53
6 | O=C[C@@H]1CCCN1C(=O)[C@@H]1CCCN1C(=O)OCc1ccccc1 [Z-prolyl-prolinal] (Cbz-Pro-Pro-aldehyde) | no detectable effect | – | –
7 | C[C@H](NC(=O)[C@@H]1CCCN1C(=O)[C@@H]1CCCN1C(=O)[C@@H](O)[C@H](N)Cc1ccccc1)C(N)=O [apstatin, Apstatin] | did not alter uACE activity | – | –
8 | CC(C)C[C@H](NC(=O)[C@@H](O)[C@H](N)Cc1ccccc1)C(=O)O [bestatin hydrochloride, Bestatin hydrochloride] | did not alter uACE activity | – | –
9 | NCCCC[C@H](N[C@@H](CCc1ccccc1)C(=O)O)C(=O)N1CCC[C@H]1C(=O)O [lisinopril] | – | – | inhibition of ACE activity in control reactions ([1]; 1 μM): completely inhibiting ACE activity; extent of uACE activity inhibition ([1]; ACE-inhibitor drugs, concentration series): completely inhibited
10 | CC(C)C[C@H](NP(=O)(O)O[C@@H]1O[C@@H](C)[C@H](O)[C@@H](O)[C@H]1O)C(=O)N[C@@H](Cc1c[nH]c2ccccc12)C(=O)O [phosphoramidon disodium salt, Phosphoramidon disodium salt] | – | – | reduction of uACE activity ([1]; 1 μM concentration): approximately 35%; effect on serum ACE activity (serum ACE): comparable inhibitory effect
